Assay results: ChEMBL document CHEMBL6127079, “Design and synthesis of spiro[pyrrolidine-3,3'-quinoline]-2,2'-dione derivatives as novel antifungal agents targeting chitin synthase” (Eur J Med Chem, 2024)
pIC50, pKi: −log10 of the molar value. ≈ marks a conversion by molar mass, not a printed value. Calls of active or inactive are those of the source. The calls are words filed in the database; no cut-off is given here.

Assays:
A549 [1] = assay: Cytotoxicity against human A549 cells assessed as reduction in cell viability at 128 microg/ml incubated for 24 hrs by CCK-8 assay relative to control; format: toxicity, cell-based; details: a549, 24 h, at 128 µg/mL
Aspergillus fumigatus [2] = assay: Synergistic antifungal activity against Aspergillus fumigatus GIMCC 3.19 assessed as fractional inhibitory concentration index in presence of fluconazole incubated for 24 hrs by half broth dilution based checkerboard method; format: functional
Aspergillus flavus [3] = assay: Antifungal activity against Aspergillus flavus ATCC 16870 assessed as fluconazole MIC incubated for 24 hrs in presence of fluconazole by half broth dilution based checkerboard method; format: functional
Candida tropicalis [4] = assay: Non-competitive inhibition of chitin synthase extracted from Candida tropicalis ATCC 750 using UDP-GlcNAc as substrate assessed as decrease in Vm with constant Km at 0 to 0.15 mM by Lineweaver-Burk plot analysis; details: dose 0-0.15 mM
Candida tropicalis [5] = assay: Inhibition of chitin synthase extracted from Candida tropicalis ATCC 750 using UDP-GlcNAc as substrate assessed as inhibition rate at 300 ug/ml by TMB based microplate analyzer relative to control; details: dose 300.0 µg/ml
Cryptococcus neoformans [6] = assay: Synergistic antifungal activity against Cryptococcus neoformans ATCC 32719 assessed as fractional inhibitory concentration index in presence of fluconazole incubated for 24 hrs by half broth dilution based checkerboard method; format: functional
Aspergillus fumigatus [7] = assay: Synergistic antifungal activity against Aspergillus fumigatus GIMCC 3.19 assessed as fractional inhibitory concentration index in presence of Polyoxin B incubated for 24 hrs by half broth dilution based checkerboard method; format: functional
Aspergillus fumigatus [8] = assay: Antifungal activity against Aspergillus fumigatus GIMCC 3.19 assessed as Polyoxin B MIC incubated for 24 hrs in presence of fluconazole by half broth dilution based checkerboard method; format: functional
A549 [9] = assay: Cytotoxicity against human A549 cells assessed as reduction in cell viability at 16 microg/ml incubated for 24 hrs by CCK-8 assay relative to control; format: toxicity, cell-based; details: a549, 24 h, at 16 µg/mL
Candida albicans [10] = assay: Synergistic antifungal activity against Candida albicans ATCC 76615 assessed as fractional inhibitory concentration index in presence of Polyoxin B incubated for 24 hrs by half broth dilution based checkerboard method; format: functional
Candida albicans [11] = assay: Antifungal activity against Candida albicans ATCC 76615 assessed as Polyoxin B MIC incubated for 24 hrs in presence of fluconazole by half broth dilution based checkerboard method; format: functional
Candida albicans [12] = assay: Synergistic antifungal activity against Candida albicans ATCC 76615 assessed as fractional inhibitory concentration index in presence of fluconazole incubated for 24 hrs by half broth dilution based checkerboard method; format: functional
Cryptococcus neoformans [13] = assay: Synergistic antifungal activity against Cryptococcus neoformans ATCC 32719 assessed as fractional inhibitory concentration index in presence of Polyoxin B incubated for 24 hrs by half broth dilution based checkerboard method; format: functional
Aspergillus fumigatus [14] = assay: Antifungal activity against drug-resistant Aspergillus fumigatus GIMCC 3.19 assessed as inhibition of cell wall synthesis in presence of sorbitol incubated for 24 hrs; format: functional
Candida albicans [15] = assay: Antifungal activity against Candida albicans ATCC 76615 assessed as inhibition of growth incubated for 24 hrs by two-fold serial dilution method; format: functional
Candida albicans [16] = assay: Antifungal activity against fluconazole-resistant Candida albicans ATCC 76615 assessed as inhibition of fungal growth incubated for 24 to 72 hrs; format: functional; details: time 24-72 hrs
Aspergillus flavus [17] = assay: Synergistic antifungal activity against Aspergillus flavus ATCC 16870 assessed as fractional inhibitory concentration index in presence of fluconazole incubated for 24 hrs by half broth dilution based checkerboard method; format: functional
Cryptococcus neoformans [18] = assay: Antifungal activity against Cryptococcus neoformans ATCC 32719 incubated for 24 hrs by half broth dilution based checkerboard method; format: functional
Aspergillus flavus [19] = assay: Antifungal activity against Aspergillus flavus ATCC 16870 assessed as inhibition of growth incubated for 24 hrs by two-fold serial dilution method; format: functional
A549 [20] = assay: Cytotoxicity against human A549 cells assessed as reduction in cell viability at 8 microg/ml incubated for 24 hrs by CCK-8 assay relative to control; format: toxicity, cell-based; details: a549, 24 h, at 8 µg/mL
Cryptococcus neoformans [21] = assay: Antifungal activity against Cryptococcus neoformans ATCC 32719 assessed as fluconazole MIC incubated for 24 hrs in presence of fluconazole by half broth dilution based checkerboard method; format: functional
Candida albicans [22] = assay: Antifungal activity against drug-resistant Candida albicans ATCC 76615 assessed as inhibition of cell wall synthesis in presence of sorbitol incubated for 24 hrs; format: functional
A549 [23] = assay: Cytotoxicity against human A549 cells assessed as reduction in cell viability at 64 microg/ml incubated for 24 hrs by CCK-8 assay relative to control; format: toxicity, cell-based; details: a549, 24 h, at 64 µg/mL
Candida albicans [24] = assay: Antifungal activity against micafungin-resistant Candida albicans ATCC 76615 assessed as inhibition of fungal growth incubated for 24 to 72 hrs; format: functional; details: time 24-72 hrs
Aspergillus flavus [25] = assay: Antifungal activity against fluconazole-resistant Aspergillus flavus ATCC 16870 assessed as inhibition of fungal growth incubated for 24 to 72 hrs; format: functional; details: time 24-72 hrs
Aspergillus flavus [26] = assay: Synergistic antifungal activity against Aspergillus flavus ATCC 16870 assessed as fractional inhibitory concentration index in presence of Polyoxin B incubated for 24 hrs by half broth dilution based checkerboard method; format: functional
[27] = Non-competitive inhibition of chitin synthase extracted from Candida tropicalis ATCC 750 using UDP-GlcNAc as substrate assessed as inhibition constant by Lineweaver-Burk plot analysis
Aspergillus fumigatus [28] = assay: Antifungal activity against Aspergillus fumigatus GIMCC 3.19 assessed as fluconazole MIC incubated for 24 hrs in presence of fluconazole by half broth dilution based checkerboard method; format: functional
A549 [29] = assay: Cytotoxicity against human A549 cells assessed as reduction in cell viability at 32 microg/ml incubated for 24 hrs by CCK-8 assay relative to control; format: toxicity, cell-based; details: a549, 24 h, at 32 µg/mL
Aspergillus fumigatus [30] = assay: Antifungal activity against Aspergillus fumigatus GIMCC 3.19 assessed as inhibition of growth incubated for 24 hrs by two-fold serial dilution method; format: functional
A549 [31] = assay: Cytotoxicity against human A549 cells assessed as reduction in cell viability at 4 microg/ml incubated for 24 hrs by CCK-8 assay relative to control; format: toxicity, cell-based; details: a549, 24 h, at 4 µg/mL
Cryptococcus neoformans [32] = assay: Antifungal activity against fluconazole-resistant Cryptococcus neoformans ATCC 32719 assessed as inhibition of fungal growth incubated for 24 to 72 hrs; format: functional; details: time 24-72 hrs
Cryptococcus neoformans [33] = assay: Antifungal activity against Cryptococcus neoformans ATCC 32719 assessed as Polyoxin B MIC incubated for 24 hrs in presence of fluconazole by half broth dilution based checkerboard method; format: functional
Aspergillus flavus [34] = assay: Antifungal activity against drug-resistant Aspergillus flavus ATCC 16870 assessed as inhibition of cell wall synthesis in presence of sorbitol incubated for 24 hrs; format: functional
Aspergillus fumigatus [35] = assay: Antifungal activity against fluconazole-resistant Aspergillus fumigatus GIMCC 3.19 assessed as inhibition of fungal growth incubated for 24 to 72 hrs; format: functional; details: time 24-72 hrs
Cryptococcus neoformans [36] = assay: Antifungal activity against Cryptococcus neoformans ATCC 32719 assessed as inhibition of growth incubated for 24 hrs by two-fold serial dilution method; format: functional
Aspergillus fumigatus [37] = assay: Antifungal activity against Aspergillus fumigatus GIMCC 3.19 incubated for 24 hrs by half broth dilution based checkerboard method; format: functional
[38] = Inhibition of chitin synthase extracted from Candida tropicalis ATCC 750 using UDP-GlcNAc as substrate assessed as inhibition rate by TMB based microplate analyzer relative to control
Candida albicans [39] = assay: Antifungal activity against Candida albicans ATCC 76615 incubated for 24 hrs by half broth dilution based checkerboard method; format: functional
Aspergillus flavus [40] = assay: Antifungal activity against Aspergillus flavus ATCC 16870 assessed as Polyoxin B MIC incubated for 24 hrs in presence of fluconazole by half broth dilution based checkerboard method; format: functional
Candida albicans [41] = assay: Antifungal activity against Candida albicans ATCC 76615 assessed as fluconazole MIC incubated for 24 hrs in presence of fluconazole by half broth dilution based checkerboard method; format: functional
Aspergillus flavus [42] = assay: Antifungal activity against Aspergillus flavus ATCC 16870 incubated for 24 hrs by half broth dilution based checkerboard method; format: functional
Cryptococcus neoformans [43] = assay: Antifungal activity against drug-resistant Cryptococcus neoformans ATCC 32719 assessed as inhibition of cell wall synthesis in presence of sorbitol incubated for 24 hrs; format: functional

Q: For `Cc1cc([N+](=O)[O-])ccc1NC(=O)C1CCN(CC(=O)Nc2ccc3c(c2)NC(=O)C2(CCNC2=O)C3)CC1` (racemic), which Activity (A549 [1]) is on record?
A: The Activity was 73.5%.

Q: And the “fractional inhibitory concentration index (FICI)” value (Aspergillus fumigatus [2])?
A: Its value is 2.

Q: And the MIC (Aspergillus flavus [3])?
A: Its MIC is 0.625 µg/mL.

Q: What about the inhibition (Candida tropicalis [4]) of the same molecule?
A: The inhibition was “Active”.

Q: What about the inhibition (Candida tropicalis [5]) of the same molecule?
A: Its inhibition is 85.2%.

Q: What about the “fractional inhibitory concentration index (FICI)” value (Cryptococcus neoformans [6]) of the same molecule?
A: The value was 0.75.

Q: What about the “fractional inhibitory concentration index (FICI)” value (Aspergillus fumigatus [7]) of the same molecule?
A: The value was 2.

Q: And the MIC (Aspergillus fumigatus [8])?
A: The MIC was 16 µg/mL.

Q: And the Activity (A549 [9])?
A: The Activity was 92.2%.

Q: What about the “fractional inhibitory concentration index (FICI)” value (Candida albicans [10]) of the same molecule?
A: The value was 0.625.

Q: What about the MIC (Candida albicans [11]) of the same molecule?
A: The MIC was 8 µg/mL.

Q: And the “fractional inhibitory concentration index (FICI)” value (Candida albicans [12])?
A: Its value is 1.

Q: What about the “fractional inhibitory concentration index (FICI)” value (Cryptococcus neoformans [13]) of the same molecule?
A: The value was 1.5.

Q: And the MIC (Aspergillus fumigatus [14])?
A: The MIC was 128 µg/mL.

Q: And the MIC (Candida albicans [15])?
A: The MIC was 8 µg/mL (≈ 15 µM).

Q: And the MIC (Candida albicans [16])?
A: The MIC was 64 µg/mL (≈ 120 µM).

Q: What about the “fractional inhibitory concentration index (FICI)” value (Aspergillus flavus [17]) of the same molecule?
A: Its value is 1.5.

Q: What about the MIC (Cryptococcus neoformans [18]) of the same molecule?
A: The MIC was 8 µg/mL.

Q: And the MIC (Aspergillus flavus [19])?
A: Its MIC is 16 µg/mL (≈ 29.9 µM).

Q: What about the Activity (A549 [20]) of the same molecule?
A: Its Activity is 93.8%.

Q: And the MIC (Cryptococcus neoformans [21])?
A: Its MIC is 1.5 µg/mL.

Q: And the MIC (Candida albicans [22])?
A: The MIC was 256 µg/mL.

Q: And the Activity (A549 [23])?
A: The Activity was 87.6%.

Q: What about the MIC (Candida albicans [24]) of the same molecule?
A: Its MIC is 64 µg/mL (≈ 120 µM).

Q: What about the MIC (Aspergillus flavus [25]) of the same molecule?
A: The MIC was 32 µg/mL (≈ 59.9 µM).

Q: And the “fractional inhibitory concentration index (FICI)” value (Aspergillus flavus [26])?
A: The value was 0.75.

Q: What about the pKi [27] of the same molecule?
A: Its pKi is 3.97.

Q: What about the MIC (Aspergillus fumigatus [28]) of the same molecule?
A: The MIC was 0.75 µg/mL.

Q: And the Activity (A549 [29])?
A: Its Activity is 91.9%.

Q: What about the MIC (Aspergillus fumigatus [30]) of the same molecule?
A: Its MIC is 16 µg/mL (≈ 29.9 µM).

Q: And the Activity (A549 [31])?
A: Its Activity is 97.1%.

Q: And the MIC (Cryptococcus neoformans [32])?
A: The MIC was 64 µg/mL (≈ 120 µM).

Q: What about the MIC (Cryptococcus neoformans [33]) of the same molecule?
A: Its MIC is 8 µg/mL.

Q: What about the MIC (Aspergillus flavus [34]) of the same molecule?
A: The MIC was 256 µg/mL.

Q: What about the MIC (Aspergillus fumigatus [35]) of the same molecule?
A: The MIC was 32 µg/mL (≈ 59.9 µM).

Q: What about the MIC (Cryptococcus neoformans [36]) of the same molecule?
A: Its MIC is 8 µg/mL (≈ 15 µM).

Q: What about the MIC (Aspergillus fumigatus [37]) of the same molecule?
A: The MIC was 16 µg/mL.

Q: And the pIC50 [38]?
A: Its pIC50 is 4.03.

Q: And the MIC (Candida albicans [39])?
A: Its MIC is 8 µg/mL.

Q: And the MIC (Aspergillus flavus [40])?
A: Its MIC is 16 µg/mL.

Q: And the MIC (Candida albicans [41])?
A: Its MIC is 1.25 µg/mL.

Q: And the MIC (Aspergillus flavus [42])?
A: The MIC was 16 µg/mL.

Q: And the MIC (Cryptococcus neoformans [43])?
A: Its MIC is 512 µg/mL.
